Read-outs that look alike come from different tables or passages of the source. *1 amine or outer side, *2 acyl side, *3 side chain or, on linkers, in order; H or OH if unused. Where a SMILES comes first, the peptide text is derived from it. [ ]: non-standard residue; d: D form. The star is where a group is joined. Benzothienyl2CO(5-CF2PO3H2) = O=C(c1cc2cc(C(F)(F)P(=O)(O)O)ccc2s1)*; βAla(N-(4-Br-phenyl)) = O=C(CCN(c1ccc(Br)cc1)[*:1])[*:2]; NHBn(4-(4-Me-thiazol-5-yl)) = Cc1ncsc1-c1ccc(CN*)cc1; Hyp = O=C(O)[C@@H]1C[C@@H](O)CN1; Tle = CC(C)(C)[C@H](N)C(=O)O; Ava = NCCCCC(=O)O

This test concerns the target T1, STAT6 (Homo sapiens, UniProt P42226).
T1 construct: endogenous in cells; host or cells: MOLM-16, KU-812, SKNO1, MB231, L1236
T1 sequence (P42226 1-847): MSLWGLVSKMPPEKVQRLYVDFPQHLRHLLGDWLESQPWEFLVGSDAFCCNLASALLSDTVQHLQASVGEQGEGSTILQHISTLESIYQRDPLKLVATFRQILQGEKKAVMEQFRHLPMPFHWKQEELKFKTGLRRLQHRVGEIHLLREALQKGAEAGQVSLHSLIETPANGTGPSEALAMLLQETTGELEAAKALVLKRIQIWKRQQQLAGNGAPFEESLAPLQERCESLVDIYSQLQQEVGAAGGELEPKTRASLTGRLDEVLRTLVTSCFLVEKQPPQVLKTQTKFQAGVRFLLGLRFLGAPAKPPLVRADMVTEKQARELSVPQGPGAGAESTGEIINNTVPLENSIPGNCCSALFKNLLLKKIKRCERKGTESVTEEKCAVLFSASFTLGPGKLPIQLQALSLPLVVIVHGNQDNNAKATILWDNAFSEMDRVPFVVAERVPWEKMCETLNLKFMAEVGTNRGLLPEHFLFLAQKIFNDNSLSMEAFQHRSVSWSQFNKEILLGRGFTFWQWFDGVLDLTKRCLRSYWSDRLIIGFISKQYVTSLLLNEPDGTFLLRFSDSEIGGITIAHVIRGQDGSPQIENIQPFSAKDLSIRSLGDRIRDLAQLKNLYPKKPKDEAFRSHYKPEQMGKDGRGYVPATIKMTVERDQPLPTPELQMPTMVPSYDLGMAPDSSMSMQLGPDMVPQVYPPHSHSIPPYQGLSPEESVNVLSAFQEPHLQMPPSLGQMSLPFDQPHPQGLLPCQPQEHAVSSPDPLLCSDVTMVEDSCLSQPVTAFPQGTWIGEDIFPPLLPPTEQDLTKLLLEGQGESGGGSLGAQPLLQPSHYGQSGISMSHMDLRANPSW
Put plainly: Immunoblotting (Western blot) analysis of STAT6 degradation efficiency of degraders in treated cells. The format is cell-based. The method, boiled down:
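Degradation read by quantitative near-infrared Western blot: equal protein loads (20-40 μg) from compound-treated versus untreated cells, probed overnight at 4° C. for STAT5 or STAT6 with GAPDH reference. Compound concentrations and exposure times as indicated; cells grown in medium with 10% FBS at 37° C.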
A general note: Immunoblotting shows a protein as a band on a membrane.

The mark [1] stands for this setting: L1236 cells, read-out: DC50 S6 L1236.
Where [2] appears, read: MOLM-16 cells, class symbols, read-out: DC50 S6 MOLM-16.

As for `Cc1ncsc1-c1ccc([C@H](C)NC(=O)[C@@H]2C[C@@H](O)CN2C(=O)[C@@H](NC(=O)CCNC(=O)CO[C@H]2C[C@@H](C(=O)N3CCO[C@H](c4ccccc4)C3)N(C(=O)[C@@H](NC(=O)c3cc4cc(C(F)(F)P(=O)(O)O)ccc4s3)C(C)(C)C)C2)C(C)(C)C)cc1` [Compound 426, (difluoro(2-(((S)-1-((2S,4S)-4-(2-((3-(((S)-1-((2S,4R)-4-hydroxy-2-(((S)-1-(4-(4-methylthiazol-5-yl)phenyl)ethyl)carbamoyl)pyrrolidin-1-yl)-3,3-dimethyl-1-oxobutan-2-yl)amino)-3-oxopropyl)amino)-2-oxoethoxy)-2-((R)-2-phenylmorpholine-4-carbonyl)pyrrolidin-1-yl)-3,3-dimethyl-1-oxobutan-2-yl)carbamoyl)benzo[b]thiophen-5-yl)methyl)phosphonic acid], the DC50 (usually the concentration at which degradation of the target reaches its halfway point) is, setting by setting: under setting [1], over 10 µM; under setting [2], over 10 µM.

As for `Cc1ncsc1-c1ccc(CNC(=O)[C@@H]2C[C@@H](O)CN2C(=O)[C@@H](NC(=O)CCCCNC(=O)CCN(C(=O)[C@@H]2CCCN2C(=O)[C@@H](NC(=O)c2cc3cc(C(F)(F)P(=O)(O)O)ccc3s2)C(C)(C)C)c2ccc(Br)cc2)C(C)(C)C)cc1` [Compound 401] ({Benzothienyl2CO(5-CF2PO3H2)}-[Tle]P[βAla(N-(4-Br-phenyl))][Ava][Tle][Hyp]-{NHBn(4-(4-Me-thiazol-5-yl))}), the DC50 (read-out: DC50 S6 MB231, MB231 cells) is over 10 µM.

Take `Cc1ncsc1-c1ccc([C@H](C)NC(=O)[C@@H]2C[C@@H](O)CN2C(=O)[C@@H](NC(=O)CCCCCCCCCNC(=O)CC(=O)N2CCN(C(=O)[C@@H](NC(=O)c3cc4cc(C(F)(F)P(=O)(O)O)ccc4s3)C(C)(C)C)[C@H](C(=O)N3CCC[C@H](c4ccccc4)C3)C2)C(C)(C)C)cc1` [Compound 460, (difluoro(2-(((S)-1-((S)-4-(3-((10-(((S)-1-((2S,4R)-4-hydroxy-2-(((S)-1-(4-(4-methylthiazol-5-yl)phenyl)ethyl)carbamoyl)pyrrolidin-1-yl)-3,3-dimethyl-1-oxobutan-2-yl)amino)-10-oxodecyl)amino)-3-oxopropanoyl)-2-((R)-3-phenylpiperidine-1-carbonyl)piperazin-1-yl)-3,3-dimethyl-1-oxobutan-2-yl)carbamoyl)benzo[b]thiophen-5-yl)methyl)phosphonic acid]: the DC50 is, setting by setting: under setting [1], over 10 µM; under setting [2], over 10 µM.

Turning to `Cc1ncsc1-c1ccc([C@H](C)NC(=O)[C@@H]2C[C@@H](O)CN2C(=O)[C@@H](NC(=O)CCCCCCCCCNC(=O)CO[C@H]2C[C@@H](C(=O)N3CCC[C@H](c4ccccc4)C3)N(C(=O)[C@@H](NC(=O)c3cc4cc(C(F)(F)P(=O)(O)O)ccc4s3)C(C)(C)C)C2)C(C)(C)C)cc1` [Compound 442, (difluoro(2-(((S)-1-((2S,4S)-4-(2-((10-(((S)-1-((2S,4R)-4-hydroxy-2-(((S)-1-(4-(4-methylthiazol-5-yl)phenyl)ethyl)carbamoyl)pyrrolidin-1-yl)-3,3-dimethyl-1-oxobutan-2-yl)amino)-10-oxodecyl)amino)-2-oxoethoxy)-2-((R)-3-phenylpiperidine-1-carbonyl)pyrrolidin-1-yl)-3,3-dimethyl-1-oxobutan-2-yl)carbamoyl)benzo[b]thiophen-5-yl)methyl)phosphonic acid], the DC50 is over 10 µM under setting [1] and over 10 µM under setting [2].

On to `Cc1ncsc1-c1ccc([C@H](C)NC(=O)[C@@H]2C[C@@H](O)CN2C(=O)[C@@H](NC(=O)CCCCCCCCNC(=O)CO[C@H]2C[C@@H](C(=O)N3CCO[C@H](c4ccccc4)C3)N(C(=O)[C@@H](NC(=O)c3cc4cc(C(F)(F)P(=O)(O)O)ccc4s3)C(C)(C)C)C2)C(C)(C)C)cc1` [Compound 432, (difluoro(2-(((S)-1-((2S,4S)-4-(2-((9-(((S)-1-((2S,4R)-4-hydroxy-2-(((S)-1-(4-(4-methylthiazol-5-yl)phenyl)ethyl)carbamoyl)pyrrolidin-1-yl)-3,3-dimethyl-1-oxobutan-2-yl)amino)-9-oxononyl)amino)-2-oxoethoxy)-2-((R)-2-phenylmorpholine-4-carbonyl)pyrrolidin-1-yl)-3,3-dimethyl-1-oxobutan-2-yl)carbamoyl)benzo[b]thiophen-5-yl)methyl)phosphonic acid], for which the DC50 under setting [1] was over 10 µM and the DC50 under setting [2] was over 10 µM.

On to `Cc1cc([C@H](C(=O)N2C[C@H](O)C[C@H]2C(=O)N[C@@H](CC(=O)NCCOCCOCCNC(=O)CO[C@@H]2C[C@@H](C(=O)N(C)c3ccc(Br)cc3)N(C(=O)[C@@H](NC(=O)c3cc4cc(C(F)(F)P(=O)(O)O)ccc4s3)C(C)(C)C)C2)c2ccc(-c3scnc3C)cc2)C(C)C)on1` [Compound 424, ((2-(((S)-1-((2S,4R)-2-((4-bromophenyl)(methyl)carbamoyl)-4-(((S)-1-((2S,4R)-4-hydroxy-1-((R)-3-methyl-2-(3-methylisoxazol-5-yl)butanoyl)pyrrolidin-2-yl)-3-(4-(4-methylthiazol-5-yl)phenyl)-1,5,16-trioxo-9,12-dioxa-2,6,15-triazaheptadecan-17-yl)oxy)pyrrolidin-1-yl)-3,3-dimethyl-1-oxobutan-2-yl)carbamoyl)benzo[b]thiophen-5-yl)difluoromethyl)phosphonic acid], for which the DC50 under setting [2] was over 10 µM.

Take `Cc1cc([C@H](C(=O)N2C[C@H](O)C[C@H]2C(=O)N[C@@H](CC(=O)NCCCCCCCCCCNC(=O)CCN(C(=O)[C@@H]2CCCN2C(=O)[C@@H](NC(=O)c2cc3cc(C(F)(F)P(=O)(O)O)ccc3s2)C(C)(C)C)c2ccc(Br)cc2)c2ccc(-c3scnc3C)cc2)C(C)C)on1` [Compound 407, ((2-(((S)-1-((S)-2-((4-bromophenyl)(3-((10-((S)-3-((2S,4R)-4-hydroxy-1-((R)-3-methyl-2-(3-methylisoxazol-5-yl)butanoyl)pyrrolidine-2-carboxamido)-3-(4-(4-methylthiazol-5-yl)phenyl)propanamido)decyl)amino)-3-oxopropyl)carbamoyl)pyrrolidin-1-yl)-3,3-dimethyl-1-oxobutan-2-yl)carbamoyl)benzo[b]thiophen-5-yl)difluoromethyl)phosphonic acid]: the DC50 (MB231 cells, read-out: DC50 S6 MB231) is over 10 µM.

For the molecule `CC(C)(C)[C@H](NC(=O)c1cc2cc(C(F)(F)P(=O)(O)O)ccc2s1)C(=O)N1CCN(C(=O)CC(=O)NCCC#Cc2cccc3c2C(=O)N(C2CCC(=O)NC2=O)C3=O)C[C@H]1C(=O)N1CCO[C@H](c2ccccc2)C1` (stereo partly drawn) [Compound 509, ((2-(((2S)-1-((2S)-4-(3-((4-(2-(2,6-dioxopiperidin-3-yl)-1,3-dioxoisoindolin-4-yl)but-3-yn-1-yl)amino)-3-oxopropanoyl)-2-((R)-2-phenylmorpholine-4-carbonyl)piperazin-1-yl)-3,3-dimethyl-1-oxobutan-2-yl)carbamoyl)benzo[b]thiophen-5-yl)difluoromethyl)phosphonic acid], the DC50 under setting [2] is over 10 µM.

`CC(C)(C)[C@H](NC(=O)c1cc2cc(C(F)(F)P(=O)(O)O)ccc2s1)C(=O)N1Cc2cc(OCC(=O)NCC#Cc3cccc4c3C(=O)N(C3CCC(=O)NC3=O)C4=O)ccc2C[C@H]1C(=O)N1CCO[C@H](c2ccccc2)C1` (stereo partly drawn) [Compound 535, ((2-(((2S)-1-((3S)-7-(2-((3-(2-(2,6-dioxopiperidin-3-yl)-1,3-dioxoisoindolin-4-yl)prop-2-yn-1-yl)amino)-2-oxoethoxy)-3-((R)-2-phenylmorpholine-4-carbonyl)-3,4-dihydroisoquinolin-2(1H)-yl)-3,3-dimethyl-1-oxobutan-2-yl)carbamoyl)benzo[b]thiophen-5-yl)difluoromethyl)phosphonic acid]: the DC50 under setting [2] was 0.1 to 1 µM.

With `CC(C)(C)[C@H](NC(=O)c1cc2cc(C(F)(F)P(=O)(O)O)ccc2s1)C(=O)N1C[C@@H](OCCCCCC(=O)N2Cc3cc4c(cc3C2)C(=O)N(C2CCC(=O)NC2=O)C4)C[C@H]1C(=O)N1CCO[C@H](c2ccccc2)C1` (stereo partly drawn) [Compound 590, ((2-(((2S)-1-((2S,4S)-4-((6-(6-(2,6-dioxopiperidin-3-yl)-5-oxo-3,5,6,7-tetrahydropyrrolo[3,4-f]isoindol-2(1H)-yl)-6-oxohexyl)oxy)-2-((R)-2-phenylmorpholine-4-carbonyl)pyrrolidin-1-yl)-3,3-dimethyl-1-oxobutan-2-yl)carbamoyl)benzo[b]thiophen-5-yl)difluoromethyl)phosphonic acid], the DC50 under setting [2] fell in the range of 1 to 10 µM.
